Data taken from patent publication US7868188B2, “5-heteroaryl thiazoles and their use as PI3K inhibitors” (AstraZeneca AB, priority 2004, dated 2011).
Where a name gives a salt, the structure may show the parent alone.

Columns and labels:
[1] = molecular target: mTOR PI kinase-related kinase (Homo sapiens, UniProt P42345); experiment: Test (b) In Vitro mTOR PI Kinase-Related Kinase Assay (AlphaScreen); format: biochemical; conditions: read-out: IC50 versus mTOR PI kinase-related kinase
Method: The assay used AlphaScreen technology (Gray et al., Analytical Biochemistry, 2003, 313: 234-245) to determine the ability of test compounds to inhibit phosphorylation by recombinant mTOR.
The HEK293 FLAG-tagged mTOR (1362-2549) stable cell line was routinely maintained at 37° C. with 5% CO2 up to a confluency of 70-90% in Dulbecco's modified Eagle's growth medium (DMEM; Invitrogen Limited, Paisley, UK Catalogue No. 41966-029) containing 10% heat-inactivated foetal calf serum (FCS; Sigma, Poole, Dorset, UK, Catalogue No. F0392), 1% L-glutamine (Gibco, Catalogue No. 25030-024) and 2 mg/ml Geneticin (G418 sulphate; Invitrogen Limited, UK Catalogue No. 10131-027). Following expression in the mammalian HEK293 cell line, expressed protein was purified using the FLAG epitope tag using standard purification techniques.
Test compounds were prepared as 10 mM stock solutions in DMSO and diluted into water as required to give a range of final assay concentrations. Aliquots (2 μl) of each compound dilution were placed into a well of a Greiner 384-well low volume (LV) white polystyrene plate (Greiner Bio-one). […]
Each reaction was stopped by the addition of 10 μl of a mixture of EDTA (50 mM), bovine serum albumin (BSA; 0.5 mg/ml) and Tris-HCl pH7.4 buffer (50 mM) containing p70 S6 Kinase (T389) 1A5 Monoclonal Antibody (Cell Signalling Technology, Catalogue No. 9206B) and AlphaScreen Streptavidin donor and Protein A acceptor beads (200 ng; Perkin Elmer, Catalogue No. 6760002B and 6760137R respectively) were added and the assay plates were left for about 20 hours at room temperature in the dark. The resultant signals arising from laser light excitation at 680 nm were read using a Packard Envision instrument.
Phosphorylated biotinylated peptide is formed in situ as a result of mTOR mediated phosphorylation. […] Upon laser light excitation at 680 nm, the donor bead: acceptor bead complex produces a signal that can be measured. […]
mTOR enzyme inhibition for a given test compound was expressed as an IC50 value.

[2] = system: phosphorylation of Serine 473 in Akt (MDA-MB-468 cells); experiment: Test (c) In Vitro phospho-Ser473 Akt Assay; format: cell-based; conditions: Homo sapiens, read-out: IC50 versus Serine 473 in Akt
Method: This assay determines the ability of test compounds to inhibit phosphorylation of Serine 473 in Akt as assessed using Acumen Explorer technology (Acumen Bioscience Limited), a plate reader that can be used to rapidly quantitate features of images generated by laser-scanning.
A MDA-MB-468 human breast adenocarcinoma cell line (LGC Promochem, Teddington, Middlesex, UK, Catalogue No. HTB-132) was routinely maintained at 37° C. with 5% CO2 up to a confluency of 70-90% in DMEM containing 10% heat-inactivated FCS and 1% L-glutamine.
For the assay, the cells were detached from the culture flask using ‘Accutase’ (Innovative Cell Technologies Inc., San Diego, Calif., USA; Catalogue No. AT104) using standard tissue culture methods and resuspended in media to give 1.7×10^5 cells per ml. Aliquots (90 μl) were seeded into each of the inner 60 wells of a black Packard 96 well plate (PerkinElmer, Boston, Mass., USA; Catalogue No. 6005182) to give a density of ˜15000 cells per well. Aliquots (90 μl) of culture media were placed in the outer wells to prevent edge effects. The cells were incubated overnight at 37° C. with 5% CO2 to allow them to adhere.
On day 2, the cells were treated with test compounds and incubated for 2 hours at 37° C. with 5% CO2. Test compounds were prepared as 10 mM stock solutions in DMSO and serially diluted as required with growth media to give a range of concentrations that were 10-fold the required final test concentrations. Aliquots (10 μl) of each compound dilution were placed in a well (in triplicate) to give the final required concentrations. As a minimum response control, each plate contained wells having a final concentration of 100 μM LY294002 (Calbiochem, Beeston, UK, Catalogue No. 440202). As a maximum response control, wells contained 1% DMSO instead of test compound. Following incubation, the contents of the plates were […] by treatment with a 1.6% aqueous formaldehyde solution (Sigma, Poole, Dorset, UK, Catalogue No. F1635) at room temperature for 1 hour.
All subsequent aspiration and wash steps were carried out using a Tecan 96 well late washer (aspiration speed 10 mm/sec). The fixing solution was removed and the contents of the plates were washed with phosphate-buffered saline (PBS; 50 μl; Gibco, Catalogue No. 10010015). The contents of the plates were treated for 10 minutes at room temperature with an aliquot (50 μl) of a cell permeabilisation buffer consisting of a mixture of PBS and 0.5% Tween-20. […] An aliquot of PBS (50 μl) was added to each well and the plates were sealed with black plate sealers and the fluorescence signal was detected and analysed.
Fluorescence dose response data obtained with each compound were analysed and the degree of inhibition of Serine 473 in Akt was expressed as an IC50 value.

mTOR PI kinase-related kinase, sequence (P42345 1362-2549): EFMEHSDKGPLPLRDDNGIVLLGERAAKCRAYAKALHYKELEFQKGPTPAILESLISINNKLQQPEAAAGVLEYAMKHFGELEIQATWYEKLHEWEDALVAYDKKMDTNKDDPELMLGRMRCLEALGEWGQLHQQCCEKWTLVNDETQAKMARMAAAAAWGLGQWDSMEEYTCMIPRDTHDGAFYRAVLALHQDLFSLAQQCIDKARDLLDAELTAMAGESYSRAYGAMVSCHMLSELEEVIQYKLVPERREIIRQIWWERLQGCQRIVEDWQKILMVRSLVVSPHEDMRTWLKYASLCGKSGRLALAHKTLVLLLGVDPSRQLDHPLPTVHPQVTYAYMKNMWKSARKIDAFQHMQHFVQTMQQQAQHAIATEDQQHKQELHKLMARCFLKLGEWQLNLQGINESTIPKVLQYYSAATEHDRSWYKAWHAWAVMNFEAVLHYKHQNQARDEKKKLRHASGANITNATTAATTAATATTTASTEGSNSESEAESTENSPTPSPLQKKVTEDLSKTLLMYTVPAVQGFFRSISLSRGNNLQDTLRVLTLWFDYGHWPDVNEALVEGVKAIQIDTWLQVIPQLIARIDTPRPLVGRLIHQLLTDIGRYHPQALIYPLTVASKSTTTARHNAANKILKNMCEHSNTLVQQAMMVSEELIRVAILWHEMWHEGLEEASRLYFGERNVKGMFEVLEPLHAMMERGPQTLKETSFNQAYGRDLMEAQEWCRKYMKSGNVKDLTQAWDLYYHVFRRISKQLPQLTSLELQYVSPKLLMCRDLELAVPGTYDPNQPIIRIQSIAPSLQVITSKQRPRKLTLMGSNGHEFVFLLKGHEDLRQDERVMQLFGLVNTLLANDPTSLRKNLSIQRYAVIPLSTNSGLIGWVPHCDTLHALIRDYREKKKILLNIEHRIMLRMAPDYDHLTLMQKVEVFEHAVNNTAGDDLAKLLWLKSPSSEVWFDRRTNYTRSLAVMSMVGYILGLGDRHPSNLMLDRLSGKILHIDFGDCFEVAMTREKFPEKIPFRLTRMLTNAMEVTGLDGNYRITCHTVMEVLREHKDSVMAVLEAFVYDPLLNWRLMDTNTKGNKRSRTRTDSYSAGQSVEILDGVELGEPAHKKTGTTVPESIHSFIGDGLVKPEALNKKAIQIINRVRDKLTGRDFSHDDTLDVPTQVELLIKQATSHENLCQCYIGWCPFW

SMILES | IC50 [1] | IC50 [2]
CC(=O)Nc1nc(C)c(-c2cnc(Cl)c(NCc3ccc(F)cc3)c2)s1 [Compound No. 3 within Example 79, N-{5-[6-Chloro-5-(4-fluorobenzylamino)pyridin-3-yl]-4-methyl-1,3-thiazol-2-yl}acetamide] | ~2000 nM | ~200 nM
CC(=O)Nc1nc(C)c(-c2cnc(Cl)c(S(=O)(=O)Nc3ccccc3)c2)s1 [Compound No. 4 within Example 73, N-{5-[6-Chloro-5-(N-phenylsulfamoyl)pyridin-3-yl]-4-methyl-1,3-thiazol-2-yl]acetamide] | ~700 nM | ~200 nM
CC(=O)Nc1nc(C)c(-c2cnc(Cl)c(NS(C)(=O)=O)c2)s1 [Example 28, N-[5-(6-Chloro-5-methylsulfonylaminopyridin-3-yl)-4-methyl-1,3-thiazol-2-yl]acetamide trifluoroacetate] | ~20 nM | ~300 nM
